# Legend:
# [1] = biological target: T1, PKAC-alpha (Homo sapiens, UniProt P17612); assay: KinomeScan; format: binding; settings: read-out: % Control
# T1 construct: purchased DiscoveRx (Fremont, CA)
# [2] = biological target: T2, PRKG2 (Homo sapiens, UniProt Q13237); assay: KinomeScan; format: binding; settings: read-out: % Control
# T2 construct: purchased DiscoveRx (Fremont, CA)
# [3] = biological target: T3, PFTK1 (Homo sapiens, UniProt O94921); assay: KinomeScan; format: binding; settings: read-out: % Control
# T3 construct: purchased DiscoveRx (Fremont, CA)
# T3 sequence (O94921 whole entry): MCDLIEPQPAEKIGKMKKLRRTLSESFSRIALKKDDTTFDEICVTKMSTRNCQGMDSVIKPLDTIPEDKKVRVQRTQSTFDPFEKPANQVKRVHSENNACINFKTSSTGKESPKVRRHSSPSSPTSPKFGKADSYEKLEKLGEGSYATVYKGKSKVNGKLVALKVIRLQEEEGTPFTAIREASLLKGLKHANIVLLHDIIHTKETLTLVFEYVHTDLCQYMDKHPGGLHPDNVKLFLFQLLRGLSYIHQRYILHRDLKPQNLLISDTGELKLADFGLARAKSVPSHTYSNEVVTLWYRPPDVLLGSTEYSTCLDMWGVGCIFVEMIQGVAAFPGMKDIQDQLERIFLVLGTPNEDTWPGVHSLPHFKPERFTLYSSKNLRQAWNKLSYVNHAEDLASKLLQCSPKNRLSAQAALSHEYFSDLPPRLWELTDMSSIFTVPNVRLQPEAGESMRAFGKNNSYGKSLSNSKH
# [4] = biological target: T4, ADRA2A (Homo sapiens, UniProt P08913); assay: GPCR Profiler; format: cell-based
# T4 construct: host or cells: Chem-1 cells with promiscuous Gα15
# T4 sequence (P08913 whole entry, species assumed): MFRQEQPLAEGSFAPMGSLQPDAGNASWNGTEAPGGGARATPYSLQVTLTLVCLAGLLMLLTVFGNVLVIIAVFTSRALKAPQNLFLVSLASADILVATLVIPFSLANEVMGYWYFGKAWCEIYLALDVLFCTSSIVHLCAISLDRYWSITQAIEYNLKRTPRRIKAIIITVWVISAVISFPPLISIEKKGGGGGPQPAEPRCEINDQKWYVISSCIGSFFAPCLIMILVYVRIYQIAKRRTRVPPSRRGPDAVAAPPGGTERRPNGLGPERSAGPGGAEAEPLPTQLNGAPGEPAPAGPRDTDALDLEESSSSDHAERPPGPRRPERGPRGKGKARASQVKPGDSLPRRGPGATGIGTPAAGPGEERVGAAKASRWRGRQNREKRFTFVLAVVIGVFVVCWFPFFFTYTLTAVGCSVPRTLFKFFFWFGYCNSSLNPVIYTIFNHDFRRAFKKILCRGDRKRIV
# [5] = biological target: T5, SRMS (Homo sapiens, UniProt Q9H3Y6); assay: KinomeScan; format: binding; settings: read-out: % Control
# T5 construct: purchased DiscoveRx (Fremont, CA)
# T5 sequence (Q9H3Y6 whole entry): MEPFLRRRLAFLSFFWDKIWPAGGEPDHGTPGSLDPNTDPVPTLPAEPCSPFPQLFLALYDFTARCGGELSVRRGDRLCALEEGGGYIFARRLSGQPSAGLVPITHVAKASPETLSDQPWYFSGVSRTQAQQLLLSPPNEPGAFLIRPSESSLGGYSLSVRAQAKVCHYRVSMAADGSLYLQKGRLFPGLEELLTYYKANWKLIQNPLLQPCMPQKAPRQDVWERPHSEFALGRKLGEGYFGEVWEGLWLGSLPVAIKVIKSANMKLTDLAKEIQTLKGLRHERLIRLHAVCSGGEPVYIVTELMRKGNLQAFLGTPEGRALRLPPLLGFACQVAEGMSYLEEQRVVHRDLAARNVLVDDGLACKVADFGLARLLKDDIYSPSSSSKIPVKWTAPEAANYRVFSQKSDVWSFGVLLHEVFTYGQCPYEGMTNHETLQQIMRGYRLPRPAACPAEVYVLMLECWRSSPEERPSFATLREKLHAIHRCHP
# [6] = biological target: T6, PRKCE (Homo sapiens, UniProt Q02156); assay: KinomeScan; format: binding; settings: read-out: % Control
# T6 construct: purchased DiscoveRx (Fremont, CA)
# T6 sequence (Q02156 whole entry): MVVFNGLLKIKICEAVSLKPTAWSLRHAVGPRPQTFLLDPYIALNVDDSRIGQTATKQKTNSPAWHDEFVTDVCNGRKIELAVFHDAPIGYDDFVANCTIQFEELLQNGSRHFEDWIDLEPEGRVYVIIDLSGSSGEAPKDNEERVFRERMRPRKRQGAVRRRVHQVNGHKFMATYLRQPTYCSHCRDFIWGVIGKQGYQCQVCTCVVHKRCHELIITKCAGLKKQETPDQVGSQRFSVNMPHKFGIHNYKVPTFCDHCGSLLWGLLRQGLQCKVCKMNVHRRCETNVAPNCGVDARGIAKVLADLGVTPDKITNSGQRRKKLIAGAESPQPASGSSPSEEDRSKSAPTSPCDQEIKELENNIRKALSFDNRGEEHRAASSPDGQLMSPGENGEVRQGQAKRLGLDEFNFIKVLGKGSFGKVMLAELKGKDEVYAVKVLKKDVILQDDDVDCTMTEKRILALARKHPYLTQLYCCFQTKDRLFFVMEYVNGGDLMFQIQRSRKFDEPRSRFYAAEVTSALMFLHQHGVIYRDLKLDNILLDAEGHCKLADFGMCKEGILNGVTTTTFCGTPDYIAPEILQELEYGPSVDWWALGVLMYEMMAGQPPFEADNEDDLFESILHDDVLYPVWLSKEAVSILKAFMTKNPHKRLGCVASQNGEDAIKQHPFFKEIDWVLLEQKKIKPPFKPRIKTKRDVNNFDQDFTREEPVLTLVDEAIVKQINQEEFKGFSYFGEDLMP
# [7] = biological target: T7, ZAK (Homo sapiens, UniProt Q9NYL2); assay: KinomeScan; format: binding; settings: read-out: % Control
# T7 construct: purchased DiscoveRx
# T7 sequence (Q9NYL2 whole entry): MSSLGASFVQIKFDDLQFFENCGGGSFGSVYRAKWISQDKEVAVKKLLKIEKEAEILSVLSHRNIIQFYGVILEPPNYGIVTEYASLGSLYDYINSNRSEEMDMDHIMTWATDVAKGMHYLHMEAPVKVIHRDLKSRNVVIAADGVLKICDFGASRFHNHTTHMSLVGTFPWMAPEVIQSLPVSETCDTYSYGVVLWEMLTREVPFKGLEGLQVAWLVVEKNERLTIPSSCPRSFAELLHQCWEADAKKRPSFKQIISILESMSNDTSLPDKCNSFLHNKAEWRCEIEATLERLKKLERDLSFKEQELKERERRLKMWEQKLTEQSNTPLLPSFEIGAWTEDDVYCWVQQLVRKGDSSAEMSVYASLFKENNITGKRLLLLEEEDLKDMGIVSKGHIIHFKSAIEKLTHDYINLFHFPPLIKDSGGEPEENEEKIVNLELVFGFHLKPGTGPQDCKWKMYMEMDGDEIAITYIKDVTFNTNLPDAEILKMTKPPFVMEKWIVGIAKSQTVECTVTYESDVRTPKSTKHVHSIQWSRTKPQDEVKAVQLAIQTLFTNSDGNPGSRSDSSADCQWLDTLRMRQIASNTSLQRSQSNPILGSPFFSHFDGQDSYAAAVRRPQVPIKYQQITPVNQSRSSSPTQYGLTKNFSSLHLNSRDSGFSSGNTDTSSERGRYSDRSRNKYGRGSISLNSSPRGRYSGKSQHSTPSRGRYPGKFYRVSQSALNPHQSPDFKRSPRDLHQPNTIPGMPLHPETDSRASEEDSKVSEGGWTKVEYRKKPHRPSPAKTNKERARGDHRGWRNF
# [8] = biological target: T8, ChemR23 (Homo sapiens, UniProt Q99788); assay: GPCR Profiler; format: cell-based
# T8 construct: host or cells: Chem-1 cells with Gα15
# T8 sequence (Q99788 whole entry, species assumed): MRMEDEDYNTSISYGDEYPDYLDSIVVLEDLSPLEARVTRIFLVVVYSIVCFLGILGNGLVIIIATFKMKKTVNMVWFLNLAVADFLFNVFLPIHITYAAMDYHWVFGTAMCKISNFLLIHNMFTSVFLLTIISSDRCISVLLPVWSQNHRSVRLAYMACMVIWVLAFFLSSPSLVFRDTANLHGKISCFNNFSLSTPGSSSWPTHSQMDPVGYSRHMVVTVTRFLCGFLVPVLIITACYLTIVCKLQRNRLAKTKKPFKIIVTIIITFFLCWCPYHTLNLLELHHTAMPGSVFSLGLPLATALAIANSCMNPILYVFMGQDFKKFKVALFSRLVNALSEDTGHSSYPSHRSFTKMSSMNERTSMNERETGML
# [9] = biological target: T9, OPRD1 (Homo sapiens, UniProt P41143); assay: GPCR Profiler; format: cell-based
# T9 construct: host or cells: Chem-1 cells expressing Gα15
# T9 sequence (P41143 whole entry, species assumed): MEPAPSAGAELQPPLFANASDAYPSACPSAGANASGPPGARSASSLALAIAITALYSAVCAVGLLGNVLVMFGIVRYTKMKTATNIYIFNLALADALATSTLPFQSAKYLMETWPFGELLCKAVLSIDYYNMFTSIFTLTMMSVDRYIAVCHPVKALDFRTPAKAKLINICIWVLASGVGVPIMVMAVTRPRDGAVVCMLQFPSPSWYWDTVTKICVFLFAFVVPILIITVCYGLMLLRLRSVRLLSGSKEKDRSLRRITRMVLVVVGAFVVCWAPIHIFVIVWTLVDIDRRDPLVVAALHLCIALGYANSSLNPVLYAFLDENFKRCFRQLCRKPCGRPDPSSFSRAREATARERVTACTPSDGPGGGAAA
# [10] = biological target: T10, SgK110 (Homo sapiens, UniProt P0C264); assay: KinomeScan; format: binding; settings: read-out: % Control
# T10 construct: purchased DiscoveRx (Fremont, CA)
# T10 sequence (P0C264 whole entry): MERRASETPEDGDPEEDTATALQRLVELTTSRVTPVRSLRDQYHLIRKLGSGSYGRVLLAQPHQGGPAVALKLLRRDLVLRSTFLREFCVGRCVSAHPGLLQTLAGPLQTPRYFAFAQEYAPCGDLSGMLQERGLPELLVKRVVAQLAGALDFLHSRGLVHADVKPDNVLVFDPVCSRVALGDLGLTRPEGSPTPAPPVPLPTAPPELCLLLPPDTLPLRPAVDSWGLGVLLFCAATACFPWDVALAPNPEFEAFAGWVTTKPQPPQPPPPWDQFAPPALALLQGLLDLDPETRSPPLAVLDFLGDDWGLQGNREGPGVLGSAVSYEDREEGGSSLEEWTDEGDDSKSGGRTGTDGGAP
# [11] = biological target: T11, 336X-GFP (GPR68 truncation variant) (Homo sapiens, UniProt Q15743); assay: SRE-luciferase assay, 336X-GFP transfected HEK293T cells; format: cell-based; settings: OGM 10 μM
# T11 construct: while the full-length (GPR68-GFP) internalizes in response to stimulation; expressed in transfected cells; host or cells: HEK293T
# Protocol: 12-well plates of cells were transfected with 1 μg DNA using Lipofectamine 3000 with sre:luciferase and either the vector backbone, GFP, GPR68, GPR68-GFP, GPR4, or 336X-GFP. After 3 days, these cells were then lysed, and cell extracts were subjected to Steady-Glo luciferase assay (Promega™) according to the manufacturer's instructions. The results were normalized to cell titer, as determined using Cell Titer-Glo luminescence assay (Promega™). For some procedure, the cells were treated in serum-free medium, and were lysed on the third day.
# Loss of internalization can indicate loss of activity or loss of the ability to internalize through beta-arrestin. […] Compared to GFP controls, GPR68-GFP and 336X-GFP transfected cells had higher levels of activity. (n=3 biological replicates done in triplicate). Furthermore, the activity of the truncation variant was still inhibited by OGM. […]
# [12] = tested on: MCF7; assay: Cell Titer-Glo viability, Breast adenocarcinoma; format: cell-based
# Protocol: (§1) OGM2 kills wide variety of cancer cell types. Cell sensitivity can be classified in to Very Sensitive (LC50<2 μM), Sensitive (LC50=2 to 10 μM), Mildly Sensitive (LC50>10 μM), and Refractory (no killing at 10 μM). The listed established cell were incubated with OGM2 at 2 μM or 10 μM for 72 hours under standard cell culture conditions, and relative cell number was assessed using Cell Titer-Glo Luminescent Cell Viability Assay (Promega™) following the manufacturer's instructions. Luminescence was determined using a Cytation 5 reader and Gen5 software package (BioTek™).
# (§2) Cancer cells, which are very sensitive to killing by OGM2 (LCs <2 μM), with reported mRNA expression of GPR68 and the related proton sensing receptor GPR4. LC50's (concentrations causing 50% lethality) were determined using CellTiter-Glo (Promega™, G7570). Cells were plated in 12-well plates (CELLTREAT Scientific Products, 229112) in 1 ml of DMEM with high glucose, GlutaMAX, HEPES, or RPMI 1640 with Penicillin-Streptomycin (ThermoFisher™, 10564029, 11875119 and 15140122) and 10% FBS. Cells were incubated overnight at 37° C. in 5% CO2. Then 1 mL of fresh media was added with DMSO, OGM, or positive control (Erastin; APExBIO Technology, LLC, B1524) and cells incubated for 3 days. On the third day, all media was removed, cells were rinsed with 1×PBS, PBS was removed, and 200 μL of 1× Passive Lysis Buffer (Promega™, E1941) was added to each well. […]. Subsequently, 20 μL of lysate was added to 100 μL CellTiter-Glo™ reagent on a LUMITRAC 200 plate (Greiner™ bio-one, 82050-726). Plates were briefly spun down and read on a GloMax-Multi Detection System (Promega™).
# (§3) The cells listed in the tables above were incubated with OGM2 at 2 μM or 10 μM for 72 hours under standard cell culture conditions, and relative cell number was assessed using Cell Titer-Glo Luminescent Cell Viability Assay (Promega™) following the manufacturer's instructions. Luminescence was determined using a Cytation 5 reader and Gen5 software package (BioTek™). RNA expression of GPR68 and GPR4 in the corresponding cancer cell lines are listed, according to the publicly available The Human Protein Atlas version 22.0 and Ensembl version 103.38 (see proteinatlas.org). The consensus normalized expression value (“nTPM”=normalize transcript per million) was calculated as the maximum nTPM value for each gene in the two data sources.
# [13] = tested on: MDA-MB-436; assay: Cell Titer-Glo viability, Breast adenocarcinoma; format: cell-based
# Protocol: as §1, §2, §3
# [14] = tested on: MDA-MB-231; assay: Cell Titer-Glo viability, Breast adenocarcinoma; format: cell-based
# Protocol: as §1, §2, §3
# [15] = tested on: DU145; assay: Liperfluo lipid peroxidation; format: cell-based, human
# From the text: (§4) OGM2 kills prostate cancer cells by inducing ferroptosis (FIG. 100). […] OGM2 induces ferroptosis in DU145 cells (FIG. 100A) and PC3 cells (FIG. 100C) based on Liperfluo™ lipid peroxidation assay. Erastin, a cystine-glutamate antiporter system Xc^− inhibitor, is a positive control ferroptosis inducer.
# [16] = tested on: PC3; assay: Liperfluo lipid peroxidation; format: cell-based, human
# From the text: as §4
# T2 sequence (Q13237 whole entry): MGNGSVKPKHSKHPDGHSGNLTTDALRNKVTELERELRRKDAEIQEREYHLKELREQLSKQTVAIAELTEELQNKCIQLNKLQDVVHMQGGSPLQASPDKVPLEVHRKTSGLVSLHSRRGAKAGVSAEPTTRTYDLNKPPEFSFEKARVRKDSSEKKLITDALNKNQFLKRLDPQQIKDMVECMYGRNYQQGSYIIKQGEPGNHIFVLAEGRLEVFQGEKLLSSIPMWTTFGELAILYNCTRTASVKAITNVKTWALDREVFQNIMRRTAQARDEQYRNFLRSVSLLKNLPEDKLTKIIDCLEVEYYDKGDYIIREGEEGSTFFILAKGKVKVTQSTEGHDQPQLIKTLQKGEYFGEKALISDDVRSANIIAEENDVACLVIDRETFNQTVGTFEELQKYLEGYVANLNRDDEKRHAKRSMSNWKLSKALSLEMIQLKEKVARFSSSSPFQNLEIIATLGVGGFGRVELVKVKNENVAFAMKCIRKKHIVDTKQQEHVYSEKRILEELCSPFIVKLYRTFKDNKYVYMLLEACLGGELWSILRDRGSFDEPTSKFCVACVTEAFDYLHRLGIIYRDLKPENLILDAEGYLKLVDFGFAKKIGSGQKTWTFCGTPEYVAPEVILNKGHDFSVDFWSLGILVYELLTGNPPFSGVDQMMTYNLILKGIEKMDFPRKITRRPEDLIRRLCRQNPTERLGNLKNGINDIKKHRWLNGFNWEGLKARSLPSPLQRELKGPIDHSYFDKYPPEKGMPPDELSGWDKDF
smiles,measurement,setting,value
"CCc1ccc2c(c1)C1(NN=C(c3cccc4ccccc34)S1)C(=O)N2 (stereo not shown) [OGM1, 5-ethyl-5′-naphthalen-1-ylspiro[1H-indole-3,2′-3H-1,3,4-thiadiazole]-2-one]",remaining binding at 10 µM,[1],95%
same,remaining binding at 10 µM,[2],91%
same,remaining binding at 10 µM,[3],92%
same,Antagonism,[4]; 10 uM,−5.1
same,Agonism,[4]; 12.5 uM,0.1
same,remaining binding at 10 µM,[5],80%
same,remaining binding at 10 µM,[6],68%
same,remaining binding at 10 µM,[7],100%
same,Antagonism,[8]; 10 uM,0.1
same,Agonism,[8]; 12.5 uM,0
same,Antagonism,[9]; 10 uM,7.4
same,Agonism,[9]; 12.5 uM,−0.1
same,remaining binding at 10 µM,[10],100%
CCc1ccc2c(c1)C1(NN=C(c3ccccc3)S1)C(=O)N2 (stereo not shown) [OGM2],SRE-luciferase activity,[11],reduced the level of luciferase activity
same,Class,[12],Sensitive (Sensitive (LC50=2 to 10 μM))
same,% Survival 2 μM OGM,[12]; 72 hours,50.6%
same,% Survival 10 μM OGM,[12]; 72 hours,25.2%
same,CC50,"[12]; Homo sapiens, MCF7, 72 hours, read-out: LC50 (the source's name)",2 to 10 µM
same,Class,[13],Sensitive (Sensitive (LC50=2 to 10 μM))
same,% Survival 2 μM OGM,[13]; 72 hours,52.6%
same,% Survival 10 μM OGM,[13]; 72 hours,35.7%
same,CC50,"[13]; Homo sapiens, MDA-MB-436, 72 hours, read-out: LC50 (the source's name)",2 to 10 µM
same,Class,[14],Sensitive (Sensitive (LC50=2 to 10 μM))
same,% Survival 2 μM OGM,[14]; 72 hours,70.1%
same,% Survival 10 μM OGM,[14]; 72 hours,48.1%
same,CC50,"[14]; Homo sapiens, MDA-MB-231, 72 hours, read-out: LC50 (the source's name)",2 to 10 µM
same,lipid peroxidation,[15],significantly increased lipid peroxidation
same,lipid peroxidation,[16],significantly increased lipid peroxidation
